In brackets after ≈: the same amount, converted by molar mass. Activity calls are given as the source filed them. The calls are words filed in the database; no cut-off is given here.
Legend:
SH-SY5Y [1] = assay: Neuroprotective activity against glutamate induced human SH-SY5Y cells at 10 uM preincubated for 30 mins followed by glutamate addition and measured after 24 hrs by LDH based assay; assay type: functional; conditions: time 24.5 hrs
SH-SY5Y [2] = assay: Neuroprotective activity against glutamate induced human SH-SY5Y cells at 0.1 uM preincubated for 30 mins followed by glutamate addition and measured after 24 hrs by LDH based assay; assay type: functional; conditions: time 24.5 hrs
SH-SY5Y [3] = assay: Neuroprotective activity against glutamate induced human SH-SY5Y cells at 1 uM preincubated for 30 mins followed by glutamate addition and measured after 24 hrs by LDH based assay; assay type: functional; conditions: time 24.5 hrs
SH-SY5Y [4] = assay: Cytotoxicity against human SH-SY5Y cells at 25 uM incubated for 72 hrs by CCK8 assay; assay type: toxicity, cell-based
[5] = Cmax in Sprague-Dawley rat at 10 mg/kg, po measured upto 24 hrs by LC-MS/MS analysis; assay type: ADME, organism-based; conditions: in vivo
[6] = AUC(0 to t) in Sprague-Dawley rat at 10 mg/kg, po measured upto 24 hrs by LC-MS/MS analysis; assay type: ADME, organism-based; conditions: in vivo
[7] = Drug concentration in Sprague-Dawley rat brain at 10 mg/kg, iv after 0.25 hrs by LC-MS/MS analysis; assay type: ADME, organism-based; conditions: read-out: Ct
Neuron [8] = assay: Inhibition of PSD95 to nNOS protein-protein interaction in glutamate induced rat neurons at 2 to 20 uM by co-immunoprecipitation method; assay type: cell-based; conditions: dose 2-20 µM
[9] = Solubility of the compound at pH 7.4; assay type: physicochemical; conditions: buffer
[10] = Tmax in Sprague-Dawley rat at 10 mg/kg, po measured upto 24 hrs by LC-MS/MS analysis; assay type: ADME, organism-based; conditions: in vivo
[11] = Drug concentration in Sprague-Dawley rat plasma at 10 mg/kg, iv after 0.25 hrs by LC-MS/MS analysis; assay type: ADME, organism-based
[12] = Drug concentration in Sprague-Dawley rat brain at 10 mg/kg, iv after 0.5 hrs by LC-MS/MS analysis; assay type: ADME, organism-based; conditions: read-out: Ct
[13] = Ratio of drug concentration in Sprague-Dawley rat brain to plasma at 10 mg/kg, iv measured after 0.25 hrs by LC-MS/MS analysis; assay type: ADME, organism-based
[14] = AUC(0 to infinity) in Sprague-Dawley rat at 10 mg/kg, po measured upto 24 hrs by LC-MS/MS analysis; assay type: ADME, organism-based; conditions: in vivo
Rattus norvegicus [15] = assay: Neuroprotective activity against MCAO-reperfusion induced Sprague-Dawley rat assessed as reduction in infarct volume at 10 mg/kg, ip by TTC staining based analysis (reference value: 40.02 +/- 2.61 %); assay type: functional; design: scale not given: the % may be the effect or the level left
[16] = Drug concentration in Sprague-Dawley rat plasma at 10 mg/kg, iv after 1 hr by LC-MS/MS analysis; assay type: ADME, organism-based
[17] = Apparent volume of distribution in Sprague-Dawley rat at 2 mg/kg, iv measured upto 24 hrs by LC-MS/MS analysis; assay type: ADME, organism-based; conditions: in vivo, read-out: Vz
[18] = Mean residence time in Sprague-Dawley rat at 2 mg/kg, iv measured upto 24 hrs by LC-MS/MS analysis; assay type: ADME, organism-based; conditions: in vivo
[19] = Mean residence time in Sprague-Dawley rat at 10 mg/kg, po measured upto 24 hrs by LC-MS/MS analysis; assay type: ADME, organism-based; conditions: in vivo
[20] = Drug concentration in Sprague-Dawley rat plasma at 10 mg/kg, iv after 0.5 hrs by LC-MS/MS analysis; assay type: ADME, organism-based
[21] = AUC(0 to t) in Sprague-Dawley rat at 2 mg/kg, iv measured upto 24 hrs by LC-MS/MS analysis; assay type: ADME, organism-based; conditions: in vivo
Neuron [22] = assay: Neuroprotective activity against glutamate-induced excitotoxicity in rat primary neurons at 0.1 uM; assay type: functional, cell-based
[23] = Ratio of drug concentration in Sprague-Dawley rat brain to plasma at 10 mg/kg, iv measured after 0.5 hrs by LC-MS/MS analysis; assay type: ADME, organism-based
[24] = Oral bioavailability in Sprague-Dawley rat at 10 mg/kg measured upto 24 hrs by LC-MS/MS analysis; assay type: ADME, organism-based; conditions: in vivo
Rattus norvegicus [25] = assay: Neuroprotective activity against MCAO-reperfusion induced Sprague-Dawley rat assessed as reduction in neurological deficit score at 10 mg/kg, ip by TTC staining based analysis (reference value: 2.93 +/- 0.12); assay type: functional
[26] = Ratio of drug concentration in Sprague-Dawley rat brain to plasma at 10 mg/kg, iv measured after 1 hr by LC-MS/MS analysis; assay type: ADME, organism-based
[27] = Half life in Sprague-Dawley rat at 2 mg/kg, iv measured upto 24 hrs by LC-MS/MS analysis; assay type: ADME, organism-based; conditions: in vivo
[28] = Apparent clearance in Sprague-Dawley rat at 2 mg/kg, iv measured upto 24 hrs by LC-MS/MS analysis; assay type: ADME, organism-based; conditions: in vivo, read-out: CL(app)
[29] = AUC(0 to infinity) in Sprague-Dawley rat at 2 mg/kg, iv measured upto 24 hrs by LC-MS/MS analysis; assay type: ADME, organism-based; conditions: in vivo
[30] = Cmax in Sprague-Dawley rat at 2 mg/kg, iv measured upto 24 hrs by LC-MS/MS analysis; assay type: ADME, organism-based; conditions: in vivo
[31] = Drug concentration in Sprague-Dawley rat brain at 10 mg/kg, iv after 1 hr by LC-MS/MS analysis; assay type: ADME, organism-based; conditions: read-out: Ct
[32] = Half life in Sprague-Dawley rat at 10 mg/kg, po measured upto 24 hrs by LC-MS/MS analysis; assay type: ADME, organism-based; conditions: in vivo
Rattus norvegicus [33] = assay: Neuroprotective activity against MCAO-reperfusion induced Sprague-Dawley rat assessed as reduction in infarct volume at 6 mg/kg, ip by TTC staining based analysis (reference value: 40.02 +/- 2.61 %); assay type: functional; design: scale not given: the % may be the effect or the level left
Cortical neurone = assay: Neuroprotective activity against glutamate induced Sprague-Dawley rat primary cortical neuron at 0.1 to 10 uM preincubated for 30 mins followed by glutamate/glycine addition for 30 mins and measured after 24 hrs by LDH based assay; assay type: functional, cell-based; conditions: dose 0.1-10 µM, time 25.0 hrs
[34] = Half life in Sprague-Dawley rat at 5 mg/kg, iv measured upto 24 hrs by LC-MS/MS analysis; assay type: ADME, organism-based; conditions: in vivo
[35] = Cmax in Sprague-Dawley rat at 5 mg/kg, iv measured upto 24 hrs by LC-MS/MS analysis; assay type: ADME, organism-based; conditions: in vivo
[36] = Mean residence time in Sprague-Dawley rat at 5 mg/kg, iv measured upto 24 hrs by LC-MS/MS analysis; assay type: ADME, organism-based; conditions: in vivo
[37] = AUC(0 to t) in Sprague-Dawley rat at 5 mg/kg, iv measured upto 24 hrs by LC-MS/MS analysis; assay type: ADME, organism-based; conditions: in vivo
[38] = AUC(0 to infinity) in Sprague-Dawley rat at 5 mg/kg, iv measured upto 24 hrs by LC-MS/MS analysis; assay type: ADME, organism-based; conditions: in vivo
[39] = Apparent volume of distribution in Sprague-Dawley rat at 5 mg/kg, iv measured upto 24 hrs by LC-MS/MS analysis; assay type: ADME, organism-based; conditions: in vivo, read-out: Vz

Nc1cc(Cl)cc(Cl)c1OCc1ccc(NS(=O)(=O)c2ccccc2)cc1
Activity (SH-SY5Y [1]): 64.69%
Activity (SH-SY5Y [2]): 15.64%
Activity (SH-SY5Y [3]): 38.63%
Activity (SH-SY5Y [4]): 1.96%

Nc1cc(Cl)cc(Cl)c1OCc1ccc(C(=O)NCCO)cc1
Activity (SH-SY5Y [1]): 41.58%
Activity (SH-SY5Y [2]): 4%
Activity (SH-SY5Y [3]): 26.31%
Activity (SH-SY5Y [4]): 1.21%

NCCNC(=O)c1ccc(COc2c(N)cc(Cl)cc2Cl)cc1
Activity (SH-SY5Y [1]): 67.8%
Activity (SH-SY5Y [2]): 12.87%
Activity (SH-SY5Y [3]): 41.14%
Activity (SH-SY5Y [4]): < 0%

NCC(=O)Nc1cc(Cl)cc(Cl)c1OCc1ccc(C(=O)Nc2ccccc2N)cc1
Cmax [5]: 233 ng/mL
AUC(0-t) at 24 h [6]: 1240 ng·h/mL
concentration at 0.25 h [7]: 10.6 ng/g
inhibition (Neuron [8]): Active
solubility [9]: 23 µg/mL (≈ 50.1 µM)
Tmax [10]: 0.83 h
concentration at 0.25 h [11]: 1890 ng/mL
concentration at 0.5 h [12]: 7.64 ng/g
Kp at 0.25 h [13]: 0.0056
AUC(0-inf) ([14]; Sprague-Dawley): 1260 ng·h/mL
Activity (Rattus norvegicus [15]): 28.31%
concentration at 1 h [16]: 329 ng/mL
Vd [17]: 8.81 L/kg
MRT [18]: 1.46 h
MRT [19]: 3.26 h
concentration at 0.5 h [20]: 935 ng/mL
AUC(0-t) at 24 h [21]: 1270 ng·h/mL
Activity (Neuron [22]): Active
Kp at 0.5 h [23]: 0.0082
bioavailability ([24]; Sprague-Dawley): 19.6%
Activity (Rattus norvegicus [25]): 2.27
Kp at 1 h [26]: 0.0305
half-life [27]: 4.08 h
clearance [28]: 26.4 mL/min/kg
AUC(0-inf) [29]: 1280 ng·h/mL
Cmax [30]: 2510 ng/mL
concentration at 1 h [31]: 10 ng/g
half-life [32]: 4.26 h

Nc1cc(Cl)cc(Cl)c1OCc1ccc(C(=O)N[C@@H]2CCCC[C@H]2N)cc1
Activity (SH-SY5Y [1]): 63.06%
Activity (SH-SY5Y [2]): 12.32%
Activity (SH-SY5Y [3]): 41.87%
Activity (SH-SY5Y [4]): 2.51%

CN(CCN)C(=O)c1ccc(COc2c(N)cc(Cl)cc2Cl)cc1
Activity (SH-SY5Y [1]): 44.82%
Activity (SH-SY5Y [2]): 11.33%
Activity (SH-SY5Y [3]): 32.51%
Activity (SH-SY5Y [4]): 2.21%

Nc1cc(Cl)cc(Cl)c1OCc1ccc(S(N)(=O)=O)cc1
Activity (SH-SY5Y [1]): 33.84%
Activity (SH-SY5Y [2]): <0%
Activity (SH-SY5Y [3]): 15.52%
Activity (SH-SY5Y [4]): 6.21%

COCCNC(=O)c1ccc(COc2c(N)cc(Cl)cc2Cl)cc1
Activity (SH-SY5Y [1]): 65.14%
Activity (SH-SY5Y [2]): 11.71%
Activity (SH-SY5Y [3]): 40.46%
Activity (SH-SY5Y [4]): 1.33%

CS(=O)(=O)Nc1ccc(COc2c(N)cc(Cl)cc2Cl)cc1
Activity (SH-SY5Y [1]): 69.19%
Activity (SH-SY5Y [2]): 15.4%
Activity (SH-SY5Y [3]): 45.26%
Activity (SH-SY5Y [4]): 3.57%

NNC(=O)c1ccc(COc2c(N)cc(Cl)cc2Cl)cc1
Activity (SH-SY5Y [1]): 22.56%
Activity (SH-SY5Y [2]): 5.89%
Activity (SH-SY5Y [3]): 6.15%
Activity (SH-SY5Y [4]): 0.59%

CN(C)CCNC(=O)c1ccc(COc2c(N)cc(Cl)cc2Cl)cc1
Activity (SH-SY5Y [1]): 32.3%
Activity (SH-SY5Y [2]): 2.56%
Activity (SH-SY5Y [3]): 15.63%
Activity (SH-SY5Y [4]): 1.52%

CC1=NN(c2ccccc2)C(=O)C1 [EDARAVONE]
Activity (Rattus norvegicus [33]): 27.06%

Nc1cc(Cl)cc(Cl)c1OCc1ccc(NS(=O)(=O)C(F)(F)F)cc1
Activity (SH-SY5Y [1]): 60.31%
Activity (SH-SY5Y [2]): 10.69%
Activity (SH-SY5Y [3]): 36.13%
Activity (SH-SY5Y [4]): 2.21%

Nc1ccccc1NC(=O)c1ccc(COc2c(N)cc(Cl)cc2Cl)cc1
Activity (SH-SY5Y [1]): 63.3%
Activity (SH-SY5Y [2]): 14.78%
Activity (SH-SY5Y [3]): 41.87%
Activity (SH-SY5Y [4]): 0.24%

Nc1cc(Cl)cc(Cl)c1OCc1ccc(C(=O)NCC(=O)O)cc1
Activity (SH-SY5Y [1]): 66.01%
Activity (SH-SY5Y [2]): 18.96%
Activity (SH-SY5Y [3]): 47.04%
Activity (SH-SY5Y [4]): 5.67%

C[C@@H](N)CNC(=O)c1ccc(COc2c(N)cc(Cl)cc2Cl)cc1
Activity (SH-SY5Y [1]): 63.79%
Activity (SH-SY5Y [2]): 13.55%
Activity (SH-SY5Y [3]): 41.38%
Activity (SH-SY5Y [4]): 3.13%

Nc1cc(Cl)cc(Cl)c1OCc1ccc(C(=O)NCCS)cc1
Activity (SH-SY5Y [1]): 61.07%
Activity (SH-SY5Y [2]): 9.67%
Activity (SH-SY5Y [3]): 35.12%
Activity (SH-SY5Y [4]): 5.23%

Nc1cc(Cl)cc(Cl)c1OCc1ccc(C(=O)N[C@H]2CCCC[C@@H]2N)cc1
Activity (SH-SY5Y [1]): 65.52%
Activity (SH-SY5Y [2]): 10.1%
Activity (SH-SY5Y [3]): 39.66%
Activity (SH-SY5Y [4]): 2.42%

NCCCNC(=O)c1ccc(COc2c(N)cc(Cl)cc2Cl)cc1
Cmax [5]: 69.3 ng/mL
AUC(0-t) at 24 h [6]: 309 ng·h/mL
Activity (Cortical neurone): Active
Tmax [10]: 1.5 h
half-life [34]: 2.67 h
AUC ([14]; po, 10 mg/kg, 24 h): 365.22 ng·h/mL
MRT [19]: 3.26 h
Cmax [35]: 471 ng/mL
MRT [36]: 1.46 h
F ([24]; po, 10 mg/kg, 24 h): 21.79%
Activity (SH-SY5Y [1]): 61.33%
AUC(0-t) at 24 h [37]: 296 ng·h/mL
Activity (SH-SY5Y [2]): 21.18%
AUC [38]: 317.96 ng·h/mL
Vd [39]: 24.7 L/kg
half-life [32]: 1.96 h
Activity (SH-SY5Y [3]): 39.65%
Activity (SH-SY5Y [4]): 1.77%

Reference: ChEMBL document CHEMBL5634140, “Discovery of benzyloxy benzamide derivatives as potent neuroprotective agents against ischemic stroke” (Eur J Med Chem, 2023)
